# From PMC3411647 (PLoS ONE, 2012)
# How the values were obtained:
# hH2R = molecular target: T1, hH2R (Homo sapiens, UniProt P25021); assay: CRE-driven luciferase activity in HEK-293 cells stably expressing hH2R; type: cell-based
# T1 construct: expressed in transfected cells
# Text: (§1) Figure 3 The selectivity of ZEL-H16 for hH3R in intracellular Ca^2+ flux assay and CRE-luciferase transcription assay. A–C, Intracellular Ca^2+ flux or CRE-driven luciferase activity induced by ZEL-H16 in HEK-293 cells stably expressing hH1R (A), hH2R (B), or hH4R (C). […] The presented data points are the mean ±SE of triplicate values from a single experiment and are representative of three separate experiments. Statistical analysis between ZEL-H16 added or not added for each concentration point in the kinetic graph was done using a t-test (PRISM software). G, Relative expression of hH1R, hH2R, hH3R and hH4R on transfected HEK-293 cells by ELISA quantification for Flag-tagged cell-surface receptors (***p<0.001, compared to non-transfected HEK 293 cells).
# (§2) Stable HEK-293 cells co-transfected with H3R and pCRE-Luc were seeded in a 48-well plate overnight and were grown to […] confluence. […] Luciferase activity was detected using a firefly luciferase kit (Promega, Madison, WI). When required, cells were treated overnight with or without PTX (100 ng/ml) in serum-free DMEM before the experiment.
# mouse H3R = molecular target: T2, mouse H3R (Mus musculus, UniProt P58406); assay: ERK1/2 phosphorylation in neonatal mouse cortical neuron cultures; type: cell-based; details: 5 µM
# T2 construct: endogenous in cells; host or cells: primary cortical neurons of neonatal ICR mice
# Protocol: Figure 8 Phosphorylation of ERK1/2 induced by ZEL-H16 in mouse cortical neurons. A, Time-dependent phosphorylation of ERK1/2 induced by 5 µM ZEL-H16 in neonatal mouse cortical neuron cultures. B, The phosphorylation of ERK1/2 induced by 50 µM ZEL-H16 for 20 min was mostly abolished by 100 ng/mL PTX or 10 µM thioperamide. Signals were quantified by densitometric image analysis and p-ERK was normalized to a loading control (ERK). The signal at each point is expressed as the percentage of the maximal p-ERK signal induced by ZEL-H16. Data represent the mean ±SE of three independent experiments.
# Neuronal cortical cultures were prepared from neonatal ICR mice. Cerebral cortices were dissociated in sterile Dulbecco’s phosphate-buffered saline (D-PBS; Sigma-Aldrich, St. Louis, MO), and the neurons were isolated in the same medium containing 0.5% trypsin at 37°C for 10 min. After centrifugation, dissociated neurons were re-suspended in neurobasal medium (NBM; Gibco, Carlsbad, CA) supplemented with 2% B-27 and 0.5 mmol/L-glutamine (Gibco, Carlsbad, CA) and then plated on 48-well plates at a density of approximately 1.3×10^6 per well. After 7 days of culture, the neurons were serum starved for approximately 3 h prior to drug treatment. […]
# hH1R = molecular target: T3, hH1R (Homo sapiens, UniProt P35367); assay: Intracellular Ca2+ flux assay in HEK-293 cells stably expressing hH1R; type: cell-based
# T3 construct: expressed in transfected cells
# Text: as §1
# The stably H1R-expressing HEK-293 cells were harvested with Cell Stripper (Mediatech, Herndon, VA), washed twice with phosphate-buffered saline (PBS), and resuspended in Hanks’ balanced salt solution (140 mM NaCl, 5 mM KCl, 10 mM HEPES, pH 7.4, 1 mM CaCl2, 1 mM MgCl2, 1 mg/ml glucose) containing 0.025% bovine serum albumin. […] Calcium flux was measured using excitation at 340 and 380 nm in a Infinite 200 PRO multifunctional microplate reader (Tecan Austria GmbH, Grödig, AT ) and [Ca^2+]i was measured using the 340/380 excitation ratio (R 340/380).
# hH4R = molecular target: T4, hH4R (Homo sapiens, UniProt Q9H3N8); assay: CRE-driven luciferase activity in HEK-293 cells stably expressing hH4R; type: cell-based
# T4 construct: expressed in transfected cells
# Text: as §1, §2
# [1] = molecular target: T5, human histamine H3 receptor (Homo sapiens, UniProt Q9Y5N1); assay: Competitive/saturation binding with [3H]N-α-methylhistamine, H3R/HEK-293 cell membranes
# T5 construct: expressed in transfected cells
# Protocol: Figure 4 Competition binding experiments with [^3H]-N-α-methylhistamine. […] The presented data are the means ±SE of values from a single experiment performed in duplicate and are representative of three to six separate experiments.
# HEK-293 cells stably expressing H3R were harvested and resuspended in ice-cold 50 mM Tris-HCl (pH 7.4) containing a complete protease inhibitor cocktail tablet and mixed by inverting. The cell pellet was homogenized with a Polytron PT 1200 set at 4000 rpm and centrifuged at 1,000 g for 5 min. The supernatant was then centrifuged twice at 50,000 g for 30 min at 4°C. Finally, the resulting pellet was gently suspended in 50 mM Tris-HCl (pH 7.4) buffer and the membrane concentration was determined using Bio-Rad protein assays.
# The membranes (50 µg of protein) were incubated with [^3H] N-α-methylhistamine at various concentrations (from 0.03 nM to 50 nM) for saturation binding assays. For competitive binding assays, the membranes (50 µg of protein) were incubated with 10 nM [^3H] N-α-methylhistamine for recombinant hH3R or 2nM [^3H] N-α-methylhistamine for rat brain H3R in the presence of various compound concentrations in the buffer (50 mM Tris–HCl, pH 7.4). […] Following three washes, the membrane-bound radioactivity was measured on a Topcount (PerkinElmer) at 20°C. […] IC50 values were converted to Ki values using the Cheng-Prusoff equation. Each experiment was performed in duplicate and repeated three to six times. All data were analyzed by nonline arregression using GraphPad Prism version 4.0 software.
# H3R = molecular target: T6, H3R (Homo sapiens, UniProt Q9Y5N1); assay: CRE-driven luciferase reporter gene assay in HEK-293 cells stably expressing hH3R; type: cell-based
# T6 construct: expressed in transfected cells
# Protocol: A, Concentration inhibition curve of luciferase activity induced by ZEL-H16 with forskolin stimulation. […] C. […] The presented data points are the mean ±SE of triplicate values from a single experiment and are representative of three to six separate experiments (*p<0.05; **p<0.01).
# Luciferase activity was detected using a firefly luciferase kit (Promega, Madison, WI). When required, cells were treated overnight with or without PTX (100 ng/ml) in serum-free DMEM before the experiment.
# T6 sequence (Q9Y5N1 whole entry): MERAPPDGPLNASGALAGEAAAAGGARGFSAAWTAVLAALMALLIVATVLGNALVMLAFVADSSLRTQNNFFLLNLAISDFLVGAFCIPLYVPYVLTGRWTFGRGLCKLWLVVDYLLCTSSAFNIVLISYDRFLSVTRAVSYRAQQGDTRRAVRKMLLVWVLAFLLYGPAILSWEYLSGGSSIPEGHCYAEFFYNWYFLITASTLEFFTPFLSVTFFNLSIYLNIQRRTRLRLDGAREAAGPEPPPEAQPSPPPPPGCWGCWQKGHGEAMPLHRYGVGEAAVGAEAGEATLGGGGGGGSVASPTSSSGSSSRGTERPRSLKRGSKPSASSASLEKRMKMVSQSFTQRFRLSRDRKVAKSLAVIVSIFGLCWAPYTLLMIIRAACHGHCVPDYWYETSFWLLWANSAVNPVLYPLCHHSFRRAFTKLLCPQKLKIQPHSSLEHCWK
# T4 sequence (Q9H3N8 whole entry): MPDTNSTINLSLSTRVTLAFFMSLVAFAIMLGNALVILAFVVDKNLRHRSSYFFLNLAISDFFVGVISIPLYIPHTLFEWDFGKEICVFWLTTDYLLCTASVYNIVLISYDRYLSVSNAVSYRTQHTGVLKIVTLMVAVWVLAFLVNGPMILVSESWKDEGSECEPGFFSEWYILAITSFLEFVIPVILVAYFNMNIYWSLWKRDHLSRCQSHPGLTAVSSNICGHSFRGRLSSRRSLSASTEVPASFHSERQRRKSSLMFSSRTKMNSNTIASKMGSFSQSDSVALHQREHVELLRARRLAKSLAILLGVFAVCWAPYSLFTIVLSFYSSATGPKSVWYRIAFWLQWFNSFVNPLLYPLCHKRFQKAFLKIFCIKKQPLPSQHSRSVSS
# T3 sequence (P35367 whole entry): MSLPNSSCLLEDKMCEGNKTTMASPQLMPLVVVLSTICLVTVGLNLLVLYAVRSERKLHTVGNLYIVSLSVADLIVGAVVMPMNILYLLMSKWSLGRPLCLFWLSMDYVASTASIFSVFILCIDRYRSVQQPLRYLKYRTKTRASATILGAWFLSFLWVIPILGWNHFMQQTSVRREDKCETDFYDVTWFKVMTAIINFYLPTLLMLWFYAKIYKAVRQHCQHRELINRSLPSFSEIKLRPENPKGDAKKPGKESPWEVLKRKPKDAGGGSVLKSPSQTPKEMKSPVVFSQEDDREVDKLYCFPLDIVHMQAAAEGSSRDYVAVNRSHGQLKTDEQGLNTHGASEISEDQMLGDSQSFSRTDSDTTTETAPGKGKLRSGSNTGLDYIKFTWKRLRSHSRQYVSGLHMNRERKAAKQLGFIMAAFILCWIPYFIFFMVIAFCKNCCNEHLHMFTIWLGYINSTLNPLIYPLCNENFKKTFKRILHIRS
# T1 sequence (P25021 whole entry): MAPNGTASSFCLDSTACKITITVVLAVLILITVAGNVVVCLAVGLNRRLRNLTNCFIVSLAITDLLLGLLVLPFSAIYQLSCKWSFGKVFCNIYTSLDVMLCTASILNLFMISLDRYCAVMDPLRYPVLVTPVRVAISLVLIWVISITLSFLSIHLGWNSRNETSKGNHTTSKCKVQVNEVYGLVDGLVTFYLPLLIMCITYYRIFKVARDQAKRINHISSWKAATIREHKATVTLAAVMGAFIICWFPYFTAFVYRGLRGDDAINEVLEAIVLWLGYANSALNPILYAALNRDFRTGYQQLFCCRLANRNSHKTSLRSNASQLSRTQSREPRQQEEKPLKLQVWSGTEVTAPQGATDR
# T5 sequence (Q9Y5N1 whole entry): as the sequence (Q9Y5N1 whole entry) above
# T2 sequence (P58406 whole entry): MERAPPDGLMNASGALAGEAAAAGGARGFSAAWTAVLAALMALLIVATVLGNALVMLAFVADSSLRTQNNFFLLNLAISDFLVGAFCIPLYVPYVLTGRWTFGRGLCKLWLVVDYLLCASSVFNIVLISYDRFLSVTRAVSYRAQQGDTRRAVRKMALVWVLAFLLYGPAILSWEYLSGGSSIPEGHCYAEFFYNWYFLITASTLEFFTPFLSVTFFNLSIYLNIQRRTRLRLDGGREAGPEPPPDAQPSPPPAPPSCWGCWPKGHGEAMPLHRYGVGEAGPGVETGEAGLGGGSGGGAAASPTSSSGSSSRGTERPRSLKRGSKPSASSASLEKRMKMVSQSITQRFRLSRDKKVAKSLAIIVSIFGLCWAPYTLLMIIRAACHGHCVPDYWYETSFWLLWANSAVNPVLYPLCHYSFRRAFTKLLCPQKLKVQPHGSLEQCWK
smiles,measurement,setting,value
c1ccc2c(c1)c(CCCN1CCCCC1)cn2CCCN1CCCCC1 [ZEL-H16],antagonist activity: influence on luciferase activity curves induced by histamine,hH2R; ZEL-H16 added to histamine,did not significantly change the luciferase activity curves
same,agonist activity: luciferase activity after stimulation,hH2R; ZEL-H16 alone,no significant responses
same,time of maximal ERK activation after stimulation,mouse H3R,20 min
same,antagonist activity: influence on Ca2+ release stimulated by histamine,hH1R; ZEL-H16 added to histamine,neither modulate the intracellular Ca^2+ release stimulated by histamine
same,agonist activity: intracellular Ca2+ release,"hH1R; ZEL-H16 alone, compared to histamine",did not induce similar intracellular Ca^2+ release
same,antagonist activity: influence on luciferase activity curves induced by histamine,hH4R; ZEL-H16 added to histamine,did not significantly change the luciferase activity curves
same,agonist activity: luciferase activity after stimulation,hH4R; ZEL-H16 alone,no significant responses
same,Ki,"[1]; 10 nM [3H]N-α-methylhistamine, H3R/HEK-293 membranes, read-out: Ki",2.07 ± 0.8 nM
same,affinity for human H3R as compared to histamine,[1]; higher affinity than histamine,approximately 20 fold
same,Emax,H3R; HEK293,61 ± 3.2%
same,Schild slope,"H3R; agonist curves in the presence of 30 nM, 300 nM or 1 µM thioperamide",1.140±0.168
same,EC50,"H3R; inhibition of forskolin-induced luciferase activity, Mean ± SEM, n = 6",4.36 ± 1.39 nM
